Where “and” joins values, the source holds several entries; their conditions need not be identical. Identical values can stand only once.
Columns and labels:
Substance-K receptor [1] = biological target: T1, Substance-K receptor (Cavia porcellus, UniProt Q64077); assay: In vitro functional NK2 activity as inhibition of guinea pig bronchoconstriction; format: tissue-based, Lung; details: read-out: pA2 (converted)
T1 sequence (Q64077 whole entry): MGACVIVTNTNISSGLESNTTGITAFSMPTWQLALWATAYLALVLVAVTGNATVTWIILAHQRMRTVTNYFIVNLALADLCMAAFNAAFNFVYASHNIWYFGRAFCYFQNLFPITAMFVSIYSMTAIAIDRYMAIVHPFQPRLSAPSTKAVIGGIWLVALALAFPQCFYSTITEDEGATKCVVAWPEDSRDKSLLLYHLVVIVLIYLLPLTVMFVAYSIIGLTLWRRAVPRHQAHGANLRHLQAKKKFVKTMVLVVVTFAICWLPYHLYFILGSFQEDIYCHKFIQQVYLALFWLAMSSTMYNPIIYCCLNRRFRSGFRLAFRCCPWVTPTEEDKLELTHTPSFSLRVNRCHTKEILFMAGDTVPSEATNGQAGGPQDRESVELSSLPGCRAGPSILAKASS

Substance-K receptor [2] = biological target: T1, Substance-K receptor; assay: In vitro binding to Tachykinin receptor 2
Substance-P receptor [3] = biological target: T2, Substance-P receptor (Cavia porcellus, UniProt P30547); assay: In vitro binding to Tachykinin receptor 1
T2 sequence (P30547 whole entry): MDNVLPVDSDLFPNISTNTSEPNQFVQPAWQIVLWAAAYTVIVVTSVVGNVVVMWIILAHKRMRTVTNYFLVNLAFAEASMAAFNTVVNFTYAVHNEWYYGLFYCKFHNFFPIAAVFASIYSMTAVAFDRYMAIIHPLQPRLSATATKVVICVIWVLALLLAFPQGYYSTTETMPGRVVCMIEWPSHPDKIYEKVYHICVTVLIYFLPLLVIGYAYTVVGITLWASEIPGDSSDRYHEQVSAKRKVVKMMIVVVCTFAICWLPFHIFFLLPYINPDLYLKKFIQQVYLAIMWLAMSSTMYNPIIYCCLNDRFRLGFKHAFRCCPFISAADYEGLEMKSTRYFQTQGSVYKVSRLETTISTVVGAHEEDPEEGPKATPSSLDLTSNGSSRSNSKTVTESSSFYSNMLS

Substance-P receptor [4] = biological target: T2, Substance-P receptor; assay: In vitro functional NK1 activity as inhibition of guinea pig bronchoconstriction; format: tissue-based, Lung; details: read-out: pA2 (converted)
Cavia porcellus [5] = assay: In vivo NK2 activity is characterized by the compounds ability to inhibit bronchoconstriction produced by a NKA challenge; format: functional; details: Lung
[6] = AUC in dog at 0-24 hr by peroral administration at 3 mpk; format: ADME, organism-based, Canis lupus familiaris; design: dose 3 mpk, time < 24 hr, route oral; details: plasma, po, 3 mg/kg
Cavia porcellus [7] = assay: In vivo NK1 activity in the guinea pig is characterized by the compounds ability to inhibit the increase in airway microvascular leakage (AML) produced by a SP challenge; format: functional
[8] = Bioavailability in dog; format: ADME, organism-based, Canis lupus familiaris; details: in vivo
Cavia porcellus [9] = assay: In vivo NK1 activity in the guinea pig is characterized by the compounds ability to inhibit the increase in airway microvascular leakage (AML) produced by a SP challenge at 10 mg/kg; format: functional
Cavia porcellus [10] = assay: In vivo NK2 activity is characterized by the compounds ability to inhibit bronchoconstriction produced by a NKA challenge at 10 mg/kg; format: functional; details: Lung
Cavia porcellus [11] = assay: In vivo NK2 activity is characterized by the compounds ability to inhibit bronchoconstriction produced by a NKA challenge at 10 mpk; format: functional; details: Lung
Substance-K receptor [12] = biological target: T1, Substance-K receptor; assay: […] is characterized by the compound ability to inhibit guinea pig bronchoconstriction; format: functional, Lung; details: read-out: pA2 (converted)

Question: For `CO/N=C(\CN(C)C(=O)c1cc(Cl)cc(Cl)c1)[C@@H](CCN1CCC(N2CCCC(CC(=O)N3CCOCC3)C2=O)CC1)c1ccc(Cl)c(Cl)c1` (stereo not given in full), which Kb (Substance-K receptor [1]) is on record?
Answer: 126 nM

Question: And the Ki (Substance-K receptor [2])?
Answer: 0.8 nM

Question: What about the Ki (Substance-P receptor [3]) of the same molecule?
Answer: 0.8 nM

Question: And the Kb (Substance-P receptor [4])?
Answer: 6.31 nM

Question: With `CO/N=C(\CN(C)C(=O)c1cc(Cl)cc(Cl)c1)[C@H](CCN1CCC(N2CCCCC2=O)CC1)c1ccc(Cl)c(Cl)c1` as the molecule, how does the Kb (Substance-K receptor [1]) read?
Answer: 20 nM

Question: And the ED50 (Cavia porcellus [5])?
Answer: 3 mg/kg

Question: And the AUC at 24 h [6]?
Answer: 1220 ng·h/mL

Question: What about the ED50 (Cavia porcellus [7]) of the same molecule?
Answer: 1 mg/kg

Question: And the Ki (Substance-K receptor [2])?
Answer: 0.8 nM and 1 nM

Question: And the Ki (Substance-P receptor [3])?
Answer: 1.2 nM and 1 nM

Question: And the bioavailability [8]?
Answer: 5%

Question: What about the Kb (Substance-P receptor [4]) of the same molecule?
Answer: 10 nM

Question: For `CO/N=C(\CN(C)C(=O)c1cc(Cl)cc(Cl)c1)C(CCN1CCC(N2CCCCC2=O)CC1)c1ccc(Cl)c(Cl)c1` (stereo not given), which Kb (Substance-K receptor [1]) is on record?
Answer: 50.1 nM

Question: And the Ki (Substance-K receptor [2])?
Answer: 2 nM

Question: And the Ki (Substance-P receptor [3])?
Answer: 5 nM

Question: Which Kb (Substance-K receptor [1]) does the source give for `CO/N=C(\CN(C)C(=O)c1cc(Cl)cc(Cl)c1)C(CCN1CCC(N2CCCC(CC(=O)N(C)C)C2=O)CC1)c1ccc(Cl)c(Cl)c1` (stereo not given) here?
Answer: 63.1 nM

Question: And the Ki (Substance-K receptor [2])?
Answer: 1 nM

Question: And the Ki (Substance-P receptor [3])?
Answer: 1 nM

Question: What does the source list for `CO/N=C(\CN(C)C(=O)c1cc(Cl)cc(Cl)c1)C(CCN1CCC(N2CCCC(CC(=O)N3CC(O)C3)C2=O)CC1)c1ccc(Cl)c(Cl)c1` (stereo not given)?
Answer: Kb (Substance-K receptor [1]): 25.1 nM; Ki (Substance-K receptor [2]): 2 nM; Ki (Substance-P receptor [3]): 3 nM

Question: What does the source list for `CO/N=C(\CN(C)C(=O)c1cc(Cl)cc(Cl)c1)[C@H](CCN1CCC(N2CCCC(CC(=O)N3CCOCC3)C2=O)CC1)c1ccc(Cl)c(Cl)c1` (stereo not given in full)?
Answer: inhibition in vivo at 10 mg/kg (Cavia porcellus [9]): 47%; Kb (Substance-K receptor [1]): 12.6 nM; inhibition in vivo at 10 mg/kg (Cavia porcellus [10]): 97%; Ki (Substance-K receptor [2]): 0.4 nM; Ki (Substance-P receptor [3]): 0.7 nM; Kb (Substance-P receptor [4]): 15.8 nM

Question: What does the source list for `CO/N=C(\CN(C)C(=O)c1cc(Cl)cc(Cl)c1)[C@H](CCN1CCC(N2CCCC(CC(=O)N3CC(O)C3)C2=O)CC1)c1ccc(Cl)c(Cl)c1` (stereo not given in full)?
Answer: inhibition in vivo at 10 mg/kg (Cavia porcellus [9]): 45%; Kb (Substance-K receptor [1]): 50.1 nM; Ki (Substance-K receptor [2]): 0.3 nM; inhibition in vivo at 10 mg/kg (Cavia porcellus [11]): 64%; Ki (Substance-P receptor [3]): 0.6 nM; Kb (Substance-P receptor [4]): 10 nM

Question: Which Kb (Substance-K receptor [12]) does the source give for `CO/N=C(\CN(C)C(=O)c1cc(Cl)cc(Cl)c1)[C@@H](CCN1CCC(N2CCCC(CC(=O)N3CC(O)C3)C2=O)CC1)c1ccc(Cl)c(Cl)c1` (stereo not given in full) here?
Answer: 501 nM

Question: And the Ki (Substance-K receptor [2])?
Answer: 0.6 nM

Question: And the Ki (Substance-P receptor [3])?
Answer: 1.1 nM

Question: With `CNC(=O)CC1CCCN(C2CCN(CC[C@H](/C(CN(C)C(=O)c3cc(Cl)cc(Cl)c3)=N/OC)c3ccc(Cl)c(Cl)c3)CC2)C1=O` (stereo not given in full) as the molecule, how does the Kb (Substance-K receptor [1]) read?
Answer: 39.8 nM

Question: What about the Ki (Substance-K receptor [2]) of the same molecule?
Answer: 0.9 nM

Question: And the Ki (Substance-P receptor [3])?
Answer: 1.5 nM

Question: What about the Kb (Substance-P receptor [4]) of the same molecule?
Answer: 10 nM

Question: Which Kb (Substance-K receptor [1]) does the source give for `CO/N=C(\CN(C)C(=O)c1cc(Cl)cc(Cl)c1)[C@H](CCN1CCC(N2CCCC(CC(N)=O)C2=O)CC1)c1ccc(Cl)c(Cl)c1` (stereo not given in full) here?
Answer: 10 nM

Question: What about the ED50 (Cavia porcellus [5]) of the same molecule?
Answer: 4 mg/kg

Question: What about the AUC at 24 h [6] of the same molecule?
Answer: 9490 ng·h/mL

Question: And the ED50 (Cavia porcellus [7])?
Answer: 1 mg/kg

Question: What about the Ki (Substance-K receptor [2]) of the same molecule?
Answer: 0.3 nM

Question: What about the Ki (Substance-P receptor [3]) of the same molecule?
Answer: 0.8 nM

Question: What about the bioavailability [8] of the same molecule?
Answer: 37%

Question: What about the Kb (Substance-P receptor [4]) of the same molecule?
Answer: 10 nM

Question: For `CO/N=C(\CN(C)C(=O)c1cc(Cl)cc(Cl)c1)[C@@H](CCN1CCC(N2CCCC(CC(N)=O)C2=O)CC1)c1ccc(Cl)c(Cl)c1` (stereo not given in full), which Kb (Substance-K receptor [1]) is on record?
Answer: 50.1 nM

Question: What about the Ki (Substance-K receptor [2]) of the same molecule?
Answer: 0.3 nM

Question: And the Ki (Substance-P receptor [3])?
Answer: 0.4 nM

Question: And the Kb (Substance-P receptor [4])?
Answer: 20 nM

Question: Which results are given for `CO/N=C(\CN(C)C(=O)c1cc(Cl)cc(Cl)c1)C(CCN1CCC(N2CCCC(CC(N)=O)C2=O)CC1)c1ccc(Cl)c(Cl)c1` (stereo not given)?
Answer: Kb (Substance-K receptor [1]): 100 nM; Ki (Substance-K receptor [2]): 3 nM; Ki (Substance-P receptor [3]): 2 nM

Question: For `CNC(=O)CC1CCCN(C2CCN(CCC(/C(CN(C)C(=O)c3cc(Cl)cc(Cl)c3)=N/OC)c3ccc(Cl)c(Cl)c3)CC2)C1=O` (stereo not given), which Kb (Substance-K receptor [1]) is on record?
Answer: 50.1 nM

Question: And the Ki (Substance-K receptor [2])?
Answer: 2 nM

Question: What about the Ki (Substance-P receptor [3]) of the same molecule?
Answer: 2 nM

Question: With `CO/N=C(\CN(C)C(=O)c1cc(Cl)cc(Cl)c1)[C@H](CCN1CCC(N2CCCC(CC(=O)N(C)C)C2=O)CC1)c1ccc(Cl)c(Cl)c1` (stereo not given in full) as the molecule, how does the Kb (Substance-K receptor [1]) read?
Answer: 39.8 nM

Question: What about the ED50 (Cavia porcellus [5]) of the same molecule?
Answer: 3 mg/kg

Question: What about the AUC at 24 h [6] of the same molecule?
Answer: 3460 ng·h/mL

Question: And the ED50 (Cavia porcellus [7])?
Answer: 3 mg/kg

Question: What about the Ki (Substance-K receptor [2]) of the same molecule?
Answer: 0.2 nM

Question: And the Ki (Substance-P receptor [3])?
Answer: 0.8 nM

Question: What about the Kb (Substance-P receptor [4]) of the same molecule?
Answer: 12.6 nM

Question: For `CNC(=O)CC1CCCN(C2CCN(CC[C@@H](/C(CN(C)C(=O)c3cc(Cl)cc(Cl)c3)=N/OC)c3ccc(Cl)c(Cl)c3)CC2)C1=O` (stereo not given in full), which Kb (Substance-K receptor [1]) is on record?
Answer: 15.8 nM

Question: And the ED50 (Cavia porcellus [5])?
Answer: 3 mg/kg

Question: What about the AUC at 24 h [6] of the same molecule?
Answer: 13600 ng·h/mL

Question: And the ED50 (Cavia porcellus [7])?
Answer: 1 mg/kg

Question: And the Ki (Substance-K receptor [2])?
Answer: 0.4 nM

Question: And the Ki (Substance-P receptor [3])?
Answer: 1.3 nM

Question: And the bioavailability [8]?
Answer: 66%

Question: And the Kb (Substance-P receptor [4])?
Answer: 12.6 nM

Question: What does the source list for `CO/N=C(\CN(C)C(=O)c1cc(Cl)cc(Cl)c1)[C@@H](CCN1CCC(N2CCCC(CC(=O)N(C)C)C2=O)CC1)c1ccc(Cl)c(Cl)c1` (stereo not given in full)?
Answer: Kb (Substance-K receptor [1]): 39.8 nM; Ki (Substance-K receptor [2]): 0.3 nM; Ki (Substance-P receptor [3]): 0.8 nM; Kb (Substance-P receptor [4]): 10 nM

Question: Which Kb (Substance-K receptor [1]) does the source give for `CO/N=C(\CN(C)C(=O)c1cc(Cl)cc(Cl)c1)C(CCN1CCC(N2CCCC(CC(=O)N3CCOCC3)C2=O)CC1)c1ccc(Cl)c(Cl)c1` (stereo not given) here?
Answer: 50.1 nM

Question: And the Ki (Substance-K receptor [2])?
Answer: 1 nM

Question: What about the Ki (Substance-P receptor [3]) of the same molecule?
Answer: 1 nM

— ChEMBL document CHEMBL1134858, “Identification of a novel 1'-[5-((3,5-dichlorobenzoyl)methylamino)-3-(3,4-dichlorophenyl)-4-(methoxyimino)pentyl]-2-oxo-(1,4'-bipiperidine) as a dual NK(1)/NK(2) antagonist” (Bioorg Med Chem Lett, 2002)
